Experiments:
[1] = Oral bioavailability, single dose pharmacokinetic study in rats (plasma concentration by HPLC); assay type: in vivo, Sprague Dawley rats; details: rat, single oral dose 10 mg/kg in 10% HPβCD, 0.5–26 hours, FIG. 7
Text: Oral bioavailability is an important pharmaceutical characteristic for a compound to advance through drug development. A basic assessment of the oral bioavailability of a compound can be done in a single dose pharmacokinetic study in wild type rats.
Six to eight week-old male Sprague Dawley rats (Harlan) were housed in a fixed 12–12- hr artificial light-dark cycle, and maintained on a standard rodent diet provided ad libitum. Animals were allowed two days to acclimate in this experimental environment prior to the initiation of the study. Compounds 24 and 25 were dissolved in a 10% hydroxypropyl beta cyclodextrin solution and administered by oral gavage in a final dose of 10 mg/kg in a volume of 5 ml/kg. Treatment groups were divided as follows:
Treatment groups(n=3/group): • 1) Compound 24 (10 mg/kg) • 2) Compound 25 (10 mg/kg)
Each animal received a single treatment, after which, the animal was bled from the tail vein at the following time points: 0.5, 1, 2, 4, 6, 9, 12, and 26 hours after treatment. To measure the concentration of each compound in plasma, blood samples were collected in heparin-coated tubes, and the plasma was isolated and analyzed by HPLC.

[2] = tested on: Mouse pre-adipocyte 3T3-L1 cells; assay: Differentiation of 3T3-L1 pre-adipocytes in an in vitro assay (lipid content); assay type: cell-based; details: 0.1 μM, 7 days; taken as reference
Procedure: The compounds of the invention have been screened in an in-vitro adipocyte differentiation assay, as described in Example 26. Mouse pre-adipocyte 3T3-L1 cells were treated with compounds at concentrations less than or equal to 10^−6 M for 7 days.
The compounds can be considered active for adipocyte differentiation if the lipid accumulation induced is at least about 20%, or at least about 40% of the lipid accumulation induced by 5-[3-(3,5,5,8,8-Pentamethyl-5,6,7,8-tetrahydro-naphthalen-2-yl)-4-trifluoromethoxy-benzylidene]-thiazolidine-2,4-dione when it is applied to control cultures of mouse preadipocyte 3T3-L1 cells at a concentration of about 1×10^−7 M.
The following protocol was used to determine adipocyte differentiation activity of the compounds of the invention: Mouse pre-adipocyte 3T3-L1 cells obtained from ATCC (American Tissue Culture Collection, MD) were initially grown in DME Dulbecco's modified Eagle's medium containing 4500 mg/L glucose; 4 mM L-glutamine; 10 U/ml Pen-G; 10 mcg/ml Streptomycin and 10% Bovine Calf Serum (CS) at 37° C. and 10% CO2. Cells were plated in 96 well plates at a density of approximately 3,000 cells/well and grown to confluence (when cells use 100% of the available space on the well) in the same medium. […] The cellular lysates were analyzed for their lipid content using the Triglyceride-GPO Trinder reagent from Sigma.

[3] = tested on: Mouse pre-adipocyte 3T3-L1 cells; details: stated as previously shown; cited from earlier work
[4] = tested on: THP-1 cells differentiated into macrophages; assay: Cholesterol efflux assay from macrophage foam cells; assay type: cell-based; details: 1 μM, 24 hr, with 10 μg/ml ApoA-I, compared to non treated cells, FIG. 4
Procedure: Cholesterol efflux from macrophage foam cells was assayed as described by Sparrow. et al, J. Biol. Chem.,2002, 277, 10021–10027, which is encorporated herein in its entirety by this reference. THP-1 cells obtained from ATCC (Manassas, VI), were cultured in RPMI medium (Sigma, St-Louis, Mo.), containing 10% fetal calf serum (Sigma, St-Louis, Mo.), 0.05 μM 2-mercaptoethanol, 1 mM sodium pyruvate, 2 mM L-glutamine, 100 units/ml penicillin, […] streptomycin and 0.25 μg/ml amphotericin B obtained from Sigma (St-Louis, Mo.). The THP-1 cells were differentiated into macrophages in 24 well tissue culture dishes at a density of 0.5 million cells/well by incubation in the same medium plus 100 nM tetradecanoyl phorbol acetate (Sigma, St-Louis, Mo.), for 3 days.
After differentiation into macrophages, the cells were tested for cholesterol efflux as induced by compound 2 of the invention. Cells were labeled by incubation for 24 hr in fresh growth medium containing [3 H]-cholesterol (10 μCi/ml) (PerkinElmer, Boston, Mass.), and 50 μg/ml acetylated-LDL (Frederick, Md.) and 1% Fetal bovine serum (Sigma, St-Louis, Mo.). […] Media were briefly centrifuged to remove non-adherent cells, and then aliquots of both the supernatant and the dissolved cells were counted by liquid scintillation spectrometry to determine radioactivity.
Cholesterol efflux is expressed as a percentage, calculated as […]

[5] = tested on: KKA^y mice; assay: Oral treatment of type 2 diabetes in KKA^y mice (serum glucose, triglyceride, cholesterol); assay type: in vivo, mouse; details: KKA^y mice, oral once daily, vs control mice, FIGS. 2a–d
Text: The procedure for this in-vivo assay for anti-diabetes activity was described in detail by Iwatsuka, et al. (1970 General Survey of Diabetic Features of Yellow KK Mice. Endocrinol. Japon. 17: 23–35, incorporated herein in its entirety by reference).
Experimental Procedures: Six to eight week-old male KKA^y mice (obtained from Jackson Labs of Bar Harbord, Me.) were housed in a fixed 12–12-hr artificial light-dark cycle, and maintained on a standard rodent diet provided ad libitum. Animals were allowed two days to acclimate in this experimental environment prior to the initiation of the study.
Prior to initiation of treatment with the compounds of the invention, the animals were bled from the tail vein (100–200 μL of whole blood) and serum levels of glucose and triglycerides were measured in duplicate (Trinder kits; Sigma, St. Louis, Mo.). Based on these initial measures, animals were sorted into groups with approximately the same average serum glucose levels. Once sorted, the animals were housed one per cage and provided rodent diet ad libitum. Unless otherwise indicated, compounds were suspended in sesame oil, and administered by oral gavage once daily to animals in a volume of 3 ml/kg/dose.
Treatment Group A (n=5/group): (See Results in FIG. 2a) • 1) KKA^y vehicle control (sesame oil) • 2) Compound 1 (3 mg/kg) • 3) Compound 1 (10 mg/kg) • 4) Compound 2 (3 mg/kg) • 5) Compound 2 (10 mg/kg)
Treatment Group B (n=6/group): (See Results in FIG. 2b) • 1) KKA^y vehicle control (sesame oil) • 2) Compound 11 (15 mg/kg)
Treatment Group C (n=6/group): (See Results in FIG. 2c) • 1) KKA^y vehicle control (sesame oil) • 2) Compound 13 (15 mg/kg)
Treatment Group D (n=6/group): (See Results in FIG. 2d) • 1) KKA^y vehicle control (CMC) • 2) Compound 25 (3 mg/kg, CMC) Compound 25 was suspended in a solution of carboxymethyl cellulose (CMC; 1% carboxy methyl cellulose in H2O, with 10% polyethelene glycol 400), and administered to animals in a volume of 5 ml/kg/dose.
Treatment Group E (n=5/group): (See Results in FIG. 2e) • 1) KKA^y vehicle control (10% HPβCD) • 2) Compound 25 (1 mg/kg) • 3) Compound 25 (3 mg/kg) • 4) Compound 25 (10 mg/kg) Compound 25 was dissolved in a 10% hydroxy propyl beta cyclodextrin solution, and administered to animals in a volume of 10 ml/kg/dose.
Serum glucose, triglyceride and/or cholesterol levels were measured in duplicate. The blood is kept at room temperature to allow coagulation, after which the serum is separated and assayed for glucose, triglyceride and/or cholesterol levels. As shown in FIGS. 2a–2d all of the compounds tested reduced serum glucose and triglyceride levels, some with doses as low as 3 mg/kg when administered once a day.

[6] = tested on: diet-induced hypercholesterolemic Sprague Dawley rats; assay: Diet-induced hypercholesterolemia in wild type Sprague Dawley rats (total, HDL, LDL cholesterol); assay type: in vivo, rat; details: Sprague Dawley rats on atherogenic diet, oral once daily, day 5, FIGS. 5a–c
Text: Experimental Procedure: Six week-old male Sprague Dawley rats (obtained from Harlan of San Diego, Calif.) were housed in a fixed 12—12-hr artificial light-dark cycle, and maintained on a high cholesterol atherogenic diet (Paigen's Diet, obtained from Research Diet Inc. of New Brounswick, N.J.) was provided ad libitum. Animals were allowed six days to acclimate in this experimental environment prior to the initiation of the study.
Prior to initiation of treatment, the animals were bled from the tail vein (100–200 μL of whole blood) and serum levels of cholesterol were measured in duplicate (Cholesterol Infinity kits; Sigma, St. Louis, Mo.). Based on these initial measures, animals were sorted into groups with approximately the same average total cholesterol levels. Once sorted, the animals were housed three per cage and maintained on Paigen's diet ad libitum. All compounds to be tested were suspended in sesame oil and administered in a final volume of 3 ml/kg. Drug is administered by oral gavage once daily at the beginning of the artificial light cycle. To obtain a base line for lipid measurement, a control group maintained on standart rodent diet is included (lean control).
Treatment Group A (n=6/group): (See Results in FIG. 5a) • 1) Lean control (Sesame Oil) • 2) Control • 3) Compound 2 (0.3 mg/kg) • 4) Compound 2 (1 mg/kg) • 5) Compound 2 (3 mg/kg)
Treatment Group B (n=6/group): (See Results in FIG. 5b) • 1) Lean control (Sesame Oil) • 2) Control • 3) Compound 6 (3 mg/kg)
Treatment Group C (n=6/group): (See Results in FIG. 5c) • 1) Lean control (10% HPβCD) • 2) Control • 3) Compound 25 (1 mg/kg) • 4) Compound 25 (3 mg/kg) • 5) Compound 25 (10 mg/kg) • 6) Compound 25 (15 mg/kg) • The compounds were dissolved in a 10% hydroxy propyl beta cyclodextrin solution, and administered to animals in a volume of 10 ml/kg/dose.
To monitor the effect of the tested compounds, animals were bled from the tail vein at the end of the dark cycle on days 0 (for sorting) and day 5 of the treatment period. Fed serum cholesterol levels were measured in duplicate. The blood is kept at room temperature to allow coagulation, after which the serum is separated and assayed for total cholesterol (Infinity reagent, Sigma), HDL cholesterol (using HDL precipitating reagent and infinity reagent, Sigma) and LDL cholesterol (EZLDL kit, Sigma). As shown in FIGS. 5a–c, all compounds tested show significant reduction in total and LDL cholesterol levels and a significant increase in HDL cholesterol levels compared to high fat fed control animals.

Row | Structure (SMILES) | concentration of compound in plasma [1] | differentiation of 3T3-L1 cells (lipid content), standard for differentiation activity [2] | inducer of adipocyte differentiation [3] | cholesterol efflux [4] | serum glucose level [5] | serum triglyceride level [5] | HDL cholesterol [6] | LDL cholesterol [6] | total cholesterol [6]
1 | Cc1cc2c(cc1-c1cc(/C=C3\SC(=O)NC3=O)ccc1OC(F)(F)F)C(C)(C)CCC2(C)C [Compound 24, 5-[3-(3,5,5,8,8-Pentamethyl-5,6,7,8-tetrahydro-naphthalen-2-yl)-4-trifluoromethoxy-benzylidene]-thiazolidine-2,4-dione] | only detected as being present at near the limit of detection | 100% | potent inducer of adipocyte differentiation |  |  |  |  |  | 
2 | CCN1C(=O)CC(C)(C)c2cc(C)c(-c3cc(/C=C4\SC(=O)NC4=O)ccc3OC(F)(F)F)cc21 [Compound 2, 5-[3-(1-Ethyl-4,4,6-trimethyl-2-oxo-1,2,3,4-tetrahydro-quinolin-7-yl)-4-trifluoromethoxy-benzylidene]-thiazolidine-2,4-dione] |  |  |  | increases | decrease | decrease | increasing | decrease | decrease

— patent US7102000B2, “Heterocyclic amide derivatives for the treatment of diabetes and other diseases” (Incyte San Diego Inc., priority 2002, dated 2006)
